In ChEMBL document CHEMBL1255252, “E240V substitution increases catalytic efficiency toward ceftazidime in a new natural TEM-type extended-spectrum beta-lactamase, TEM-149, from Enterobacter aerogenes and Serratia marcescens clinical isolates” (2008):
Converted amounts (≈) assume the structure as drawn.

How the values were obtained:
Escherichia coli [1] = assay: Antimicrobial activity against Escherichia coli HB101 expressing recombinant plasmid encoded TEM-149 by broth macrodilution method; format: functional
Escherichia coli [2] = assay: Antimicrobial activity against Escherichia coli HB101 expressing plasmid encoded TEM-149 T182M mutant by broth macrodilution method; format: functional
[3] = Activity of Beta-lactamase TEM-149 expressed in Escherichia coli HB101
[4] = Ratio of Kcat to Km for Beta-lactamase TEM-149 expressed in Escherichia coli HB101
Serratia marcescens = assay: Antimicrobial activity against Serratia marcescens isolate CT-118 by broth macrodilution method; format: functional
[5] = Ratio of Kcat to Km for Beta-lactamase TEM-149 T182M mutant expressed in Escherichia coli HB101
Escherichia coli [6] = assay: Antimicrobial activity against Escherichia coli HB101 harboring empty vector pBK-SK by broth macrodilution method; format: functional
Klebsiella aerogenes = assay: Antimicrobial activity against Enterobacter aerogenes isolate SS-13 by broth macrodilution method; format: functional
[7] = Activity of Beta-lactamase TEM-149 T182M mutant expressed in Escherichia coli HB101
[8] = Activity of Beta-lactamase TEM-10
[9] = Ratio of Kcat to Km for Beta-lactamase TEM-10

SMILES	MIC (Escherichia coli [1])	MIC (Escherichia coli [2])	Km [3]	kcat [3]	kcat/Km [4]	MIC (Serratia marcescens)	kcat/Km [5]	MIC (Escherichia coli [6])	MIC (Klebsiella aerogenes)	Km [7]	kcat [7]	Km [8]	kcat [8]	kcat/Km [9]
CO/N=C(\C(=O)N[C@@H]1C(=O)N2C(C(=O)[O-])=C(C[N+]3(C)CCCC3)CS[C@H]12)c1csc(N)n1	8 µg/mL	< 0.125 µg/mL	16 µM	2.4 s⁻¹	150000 M⁻¹ s⁻¹	> 64 µg/mL	14000 M⁻¹ s⁻¹	1 µg/mL (≈ 2.08 µM)	> 64 µg/mL	30 µM	0.43 s⁻¹	–	–	–
CC1(C)S[C@@H]2[C@H](NC(=O)Cc3ccccc3)C(=O)N2[C@H]1C(=O)O	–	–	0.6 µM	3.5 s⁻¹	5.8e+06 M⁻¹ s⁻¹	–	1.5e+07 M⁻¹ s⁻¹	–	–	0.7 µM	10.5 s⁻¹	2 µM	51 s⁻¹	2.55e+07 M⁻¹ s⁻¹
CC1(C)S[C@@H]2[C@H](NC(=O)[C@H](N)c3ccccc3)C(=O)N2[C@H]1C(=O)O	–	–	5 µM	5.4 s⁻¹	1.08e+06 M⁻¹ s⁻¹	–	127000 M⁻¹ s⁻¹	–	–	19 µM	2.4 s⁻¹	4 µM	12.5 s⁻¹	3.1e+06 M⁻¹ s⁻¹
CC1(C)S[C@@H]2[C@H](NC(=O)[C@H](N)c3ccc(O)cc3)C(=O)N2[C@H]1C(=O)O [AMOXICILLIN]	> 64 µg/mL	8 µg/mL (≈ 21.9 µM)	–	–	–	> 64 µg/mL	–	–	> 64 µg/mL	–	–	–	–	–
C[C@H]1[C@H](NC(=O)/C(=N\OC(C)(C)C(=O)O)c2csc(N)n2)C(=O)N1S(=O)(=O)O [AZTREONAM]	> 64 µg/mL	< 0.125 µg/mL	51 µM	4.7 s⁻¹	92000 M⁻¹ s⁻¹	> 64 µg/mL	130000 M⁻¹ s⁻¹	64 µg/mL (≈ 147 µM)	> 64 µg/mL	27 µM	3.6 s⁻¹	28 µM	2 s⁻¹	70000 M⁻¹ s⁻¹
Cc1nnc(SCC2=C(C(=O)O)N3C(=O)[C@@H](NC(=O)Cn4cnnn4)[C@H]3SC2)s1 [CEFAZOLIN]	32 µg/mL	1 µg/mL (≈ 2.2 µM)	68 µM	2.2 s⁻¹	32000 M⁻¹ s⁻¹	> 64 µg/mL	16000 M⁻¹ s⁻¹	4 µg/mL (≈ 8.8 µM)	> 64 µg/mL	35 µM	0.56 s⁻¹	417 µM	12.5 s⁻¹	30000 M⁻¹ s⁻¹
CO/N=C(\C(=O)N[C@@H]1C(=O)N2C(C(=O)O)=C(COC(C)=O)CS[C@H]12)c1csc(N)n1 [CEFOTAXIME]	1 µg/mL	< 0.125 µg/mL	43 µM	0.07 s⁻¹	1600 M⁻¹ s⁻¹	> 128 µg/mL	13000 M⁻¹ s⁻¹	4 µg/mL (≈ 8.78 µM)	> 128 µg/mL	32 µM	0.41 s⁻¹	30 µM	0.3 s⁻¹	10000 M⁻¹ s⁻¹
CC(C)(O/N=C(\C(=O)N[C@@H]1C(=O)N2C(C(=O)[O-])=C(C[n+]3ccccc3)CS[C@H]12)c1csc(N)n1)C(=O)O [CEFTAZIDIME]	> 64 µg/mL	0.5 µg/mL (≈ 0.915 µM)	19 µM	8.3 s⁻¹	440000 M⁻¹ s⁻¹	> 64 µg/mL	320000 M⁻¹ s⁻¹	> 64 µg/mL	> 64 µg/mL	26 µM	8.3 s⁻¹	607 µM	17 s⁻¹	28000 M⁻¹ s⁻¹
CCN1CCN(C(=O)N[C@@H](C(=O)N[C@@H]2C(=O)N3[C@@H]2SC(C)(C)[C@@H]3C(=O)O)c2ccccc2)C(=O)C1=O [PIPERACILLIN]	> 256 µg/mL	1 µg/mL (≈ 1.93 µM)	1.4 µM	2.7 s⁻¹	1.92e+06 M⁻¹ s⁻¹	> 256 µg/mL	1.47e+06 M⁻¹ s⁻¹	32 µg/mL (≈ 61.8 µM)	> 256 µg/mL	3.4 µM	5 s⁻¹	–	–	–
